Reference: patent US9255295B2, “Method for evaluating the sensitizing potential of a test compound” (IMMUNOSEARCH, priority 2010, dated 2016)
Where two headings read alike, the source gives them in different places.

Tested on: ARE gene family (AKR1B10, AKR1C1, AKR1C2, CYP1B1, FTH1P, FTL, G6PD, GCLM, NQO2, SLC7A11, TXNRD1, UGT1A1, UGT1A9, YWHAZ, CD36, CYP1A1, GCLC, HMOX1, NQO1, PSME2 …)
Settings: for AHR expression / AKR1B10 expression / AKR1C1 expression / AKR1C2 expression / CYP1A1 expression / CYP1B1 expression / FTH1P expression / FTL expression / GCLC expression / GCLM expression / HMOX1 expression / NQO1 expression / NQO2 expression / SLC7A11 expression / TXNRD1 expression / UGT1A1 expression / UGT1A9 expression: compared to the control

Q: Which results are given for `CC=Cc1ccc(O)c(OC)c1` [Isoeugenol]?
A: AHR NUMBER OF GENES grade (0.1%): 0 (if this expression is lower, the grade is 0); AKR1B10 NUMBER OF GENES grade (0.1%): 0 (if this expression is lower, the grade is 0); AKR1C1 NUMBER OF GENES grade (0.1%): 0 (if this expression is lower, the grade is 0); AKR1C2 NUMBER OF GENES grade (0.1%): 0 (if this expression is lower, the grade is 0); ARE >1.3 (number of genes) (0.1%): 2; CD36 expression compared to control (0.1%): 0.9; CD36 grade (NUMBER OF GENES) (0.1%): 0 (if this expression is lower, the grade is 0); CYP1A1 NUMBER OF GENES grade (0.1%): 1 (If the expression is greater than 1.3 compared to the control, a grade of 11s given); CYP1B1 NUMBER OF GENES grade (0.1%): 1 (If the expression is greater than 1.3 compared to the control, a grade of 11s given); FTH1P NUMBER OF GENES grade (0.1%): 0 (if this expression is lower, the grade is 0); FTL NUMBER OF GENES grade (0.1%): 0 (if this expression is lower, the grade is 0); GCLC NUMBER OF GENES grade (0.1%): 0 (if this expression is lower, the grade is 0); GCLM NUMBER OF GENES grade (0.1%): 0 (if this expression is lower, the grade is 0); HMOX1 NUMBER OF GENES grade (0.1%): 0 (if this expression is lower, the grade is 0); NQO1 NUMBER OF GENES grade (0.1%): 0 (if this expression is lower, the grade is 0); NQO2 NUMBER OF GENES grade (0.1%): 0 (if this expression is lower, the grade is 0); S100A8 expression compared to control (0.1%): 1.1; S100A8 grade (NUMBER OF GENES) (0.1%): 0 (if this expression is lower, the grade is 0); SLC7A11 NUMBER OF GENES grade (0.1%): 0 (if this expression is lower, the grade is 0); TOTAL ARE (number of genes) (0.1%): 2; TXNRD1 NUMBER OF GENES grade (0.1%): 0 (if this expression is lower, the grade is 0); UGT1A1 NUMBER OF GENES grade (0.1%): 0 (if this expression is lower, the grade is 0); UGT1A9 NUMBER OF GENES grade (0.1%): 0 (if this expression is lower, the grade is 0); AHR expression (0.1%): 0.7; AKR1B10 expression (0.1%): 0.9; AKR1C1 expression (0.1%): 1.1; AKR1C2 expression (0.1%): 1.0; CYP1A1 expression (0.1%): 11.9; CYP1B1 expression (0.1%): 12.2; FTH1P expression (0.1%): 0.8; FTL expression (0.1%): 1.0; GCLC expression (0.1%): 0.8; GCLM expression (0.1%): 1.1; HMOX1 expression (0.1%): 0.9; NQO1 expression (0.1%): 1.1; NQO2 expression (0.1%): 1.0; SLC7A11 expression (0.1%): 1.1; TXNRD1 expression (0.1%): 1.1; UGT1A1 expression (0.1%): 1.0; UGT1A9 expression (0.1%): 0.8; AHR NUMBER OF GENES grade (1%): 0 (if this expression is lower, the grade is 0); AKR1B10 NUMBER OF GENES grade (1%): 0 (if this expression is lower, the grade is 0); AKR1C1 NUMBER OF GENES grade (1%): 0 (if this expression is lower, the grade is 0); AKR1C2 NUMBER OF GENES grade (1%): 0 (if this expression is lower, the grade is 0); ARE >1.3 (number of genes) (1%): 3; CD36 expression compared to control (1%): 1.3; CD36 grade (NUMBER OF GENES) (1%): 1 (If the expression is greater than 1.3 compared to the control, a grade of 11s given); CYP1A1 NUMBER OF GENES grade (1%): 1 (If the expression is greater than 1.3 compared to the control, a grade of 11s given); CYP1B1 NUMBER OF GENES grade (1%): 1 (If the expression is greater than 1.3 compared to the control, a grade of 11s given); FTH1P NUMBER OF GENES grade (1%): 0 (if this expression is lower, the grade is 0); FTL NUMBER OF GENES grade (1%): 0 (if this expression is lower, the grade is 0); GCLC NUMBER OF GENES grade (1%): 0 (if this expression is lower, the grade is 0); GCLM NUMBER OF GENES grade (1%): 0 (if this expression is lower, the grade is 0); HMOX1 NUMBER OF GENES grade (1%): 0 (if this expression is lower, the grade is 0); NQO1 NUMBER OF GENES grade (1%): 0 (if this expression is lower, the grade is 0); NQO2 NUMBER OF GENES grade (1%): 0 (if this expression is lower, the grade is 0); S100A8 expression compared to control (1%): 1.0; S100A8 grade (NUMBER OF GENES) (1%): 0 (if this expression is lower, the grade is 0); SLC7A11 NUMBER OF GENES grade (1%): 0 (if this expression is lower, the grade is 0); TOTAL ARE (number of genes) (1%): 3; TXNRD1 NUMBER OF GENES grade (1%): 1 (If the expression is greater than 1.3 compared to the control, a grade of 11s given); UGT1A1 NUMBER OF GENES grade (1%): 0 (if this expression is lower, the grade is 0); UGT1A9 NUMBER OF GENES grade (1%): 0 (if this expression is lower, the grade is 0); AHR expression (1%): 0.9; AKR1B10 expression (1%): 0.7; AKR1C1 expression (1%): 1.2; AKR1C2 expression (1%): 0.9; CYP1A1 expression (1%): 219.2; CYP1B1 expression (1%): 25.3; FTH1P expression (1%): 0.9; FTL expression (1%): 1.0; GCLC expression (1%): 0.9; GCLM expression (1%): 1.2; HMOX1 expression (1%): 1.2; NQO1 expression (1%): 1.0; NQO2 expression (1%): 1.0; SLC7A11 expression (1%): 1.1; TXNRD1 expression (1%): 1.3; UGT1A1 expression (1%): 1.1; UGT1A9 expression (1%): 1.0; AHR NUMBER OF GENES grade (10%): 0 (if this expression is lower, the grade is 0); AKR1B10 NUMBER OF GENES grade (10%): 0 (if this expression is lower, the grade is 0); AKR1C1 NUMBER OF GENES grade (10%): 0 (if this expression is lower, the grade is 0); AKR1C2 NUMBER OF GENES grade (10%): 0 (if this expression is lower, the grade is 0); ARE >1.3 (number of genes) (10%): 5; CD36 expression compared to control (10%): 0.6; CD36 grade (NUMBER OF GENES) (10%): 0 (if this expression is lower, the grade is 0); CYP1A1 NUMBER OF GENES grade (10%): 1 (If the expression is greater than 1.3 compared to the control, a grade of 11s given); CYP1B1 NUMBER OF GENES grade (10%): 1 (If the expression is greater than 1.3 compared to the control, a grade of 11s given); FTH1P NUMBER OF GENES grade (10%): 0 (if this expression is lower, the grade is 0); FTL NUMBER OF GENES grade (10%): 0 (if this expression is lower, the grade is 0); GCLC NUMBER OF GENES grade (10%): 0 (if this expression is lower, the grade is 0); GCLM NUMBER OF GENES grade (10%): 1 (If the expression is greater than 1.3 compared to the control, a grade of 11s given); HMOX1 NUMBER OF GENES grade (10%): 0 (if this expression is lower, the grade is 0); NQO1 NUMBER OF GENES grade (10%): 0 (if this expression is lower, the grade is 0); NQO2 NUMBER OF GENES grade (10%): 0 (if this expression is lower, the grade is 0); S100A8 expression compared to control (10%): 1.3; S100A8 grade (NUMBER OF GENES) (10%): 1 (If the expression is greater than 1.3 compared to the control, a grade of 11s given); SLC7A11 NUMBER OF GENES grade (10%): 0 (if this expression is lower, the grade is 0); TOTAL ARE (number of genes) (10%): 5; TXNRD1 NUMBER OF GENES grade (10%): 1 (If the expression is greater than 1.3 compared to the control, a grade of 11s given); UGT1A1 NUMBER OF GENES grade (10%): 0 (if this expression is lower, the grade is 0); UGT1A9 NUMBER OF GENES grade (10%): 1 (If the expression is greater than 1.3 compared to the control, a grade of 11s given); AHR expression (10%): 0.9; AKR1B10 expression (10%): 0.5; AKR1C1 expression (10%): 1.1; AKR1C2 expression (10%): 0.7; CYP1A1 expression (10%): 510.5; CYP1B1 expression (10%): 39.8; FTH1P expression (10%): 0.9; FTL expression (10%): 0.9; GCLC expression (10%): 0.8; GCLM expression (10%): 1.5; HMOX1 expression (10%): 1.2; NQO1 expression (10%): 1.0; NQO2 expression (10%): 0.9; SLC7A11 expression (10%): 1.1; TXNRD1 expression (10%): 1.5; UGT1A1 expression (10%): 1.2; UGT1A9 expression (10%): 1.6; AHR NUMBER OF GENES grade (50%): 0 (if this expression is lower, the grade is 0); AKR1B10 NUMBER OF GENES grade (50%): 0 (if this expression is lower, the grade is 0); AKR1C1 NUMBER OF GENES grade (50%): 1 (If the expression is greater than 1.3 compared to the control, a grade of 11s given); AKR1C2 NUMBER OF GENES grade (50%): 1 (If the expression is greater than 1.3 compared to the control, a grade of 11s given); ARE >1.3 (number of genes) (50%): 11; CD36 expression compared to control (50%): 0.6; CD36 grade (NUMBER OF GENES) (50%): 0 (if this expression is lower, the grade is 0); CYP1A1 NUMBER OF GENES grade (50%): 1 (If the expression is greater than 1.3 compared to the control, a grade of 11s given); CYP1B1 NUMBER OF GENES grade (50%): 1 (If the expression is greater than 1.3 compared to the control, a grade of 11s given); FTH1P NUMBER OF GENES grade (50%): 0 (if this expression is lower, the grade is 0); FTL NUMBER OF GENES grade (50%): 1 (If the expression is greater than 1.3 compared to the control, a grade of 11s given); GCLC NUMBER OF GENES grade (50%): 1 (If the expression is greater than 1.3 compared to the control, a grade of 11s given); GCLM NUMBER OF GENES grade (50%): 1 (If the expression is greater than 1.3 compared to the control, a grade of 11s given); HMOX1 NUMBER OF GENES grade (50%): 1 (If the expression is greater than 1.3 compared to the control, a grade of 11s given); NQO1 NUMBER OF GENES grade (50%): 1 (If the expression is greater than 1.3 compared to the control, a grade of 11s given); NQO2 NUMBER OF GENES grade (50%): 0 (if this expression is lower, the grade is 0); S100A8 expression compared to control (50%): 1.5; S100A8 grade (NUMBER OF GENES) (50%): 1 (If the expression is greater than 1.3 compared to the control, a grade of 11s given); SLC7A11 NUMBER OF GENES grade (50%): 1 (If the expression is greater than 1.3 compared to the control, a grade of 11s given); TOTAL ARE (number of genes) (50%): 11; TXNRD1 NUMBER OF GENES grade (50%): 1 (If the expression is greater than 1.3 compared to the control, a grade of 11s given); UGT1A1 NUMBER OF GENES grade (50%): 0 (if this expression is lower, the grade is 0); UGT1A9 NUMBER OF GENES grade (50%): 0 (if this expression is lower, the grade is 0); AHR expression (50%): 1.0; AKR1B10 expression (50%): 1.0; AKR1C1 expression (50%): 2.2; AKR1C2 expression (50%): 1.3; CYP1A1 expression (50%): 87.1; CYP1B1 expression (50%): 39.1; FTH1P expression (50%): 1.0; FTL expression (50%): 1.5; GCLC expression (50%): 1.3; GCLM expression (50%): 2.0; HMOX1 expression (50%): 1.4; NQO1 expression (50%): 1.8; NQO2 expression (50%): 1.1; SLC7A11 expression (50%): 2.2; TXNRD1 expression (50%): 2.6; UGT1A1 expression (50%): 1.2; UGT1A9 expression (50%): 1.2
